In assay [1] the target is T1, STAT 6 (Homo sapiens, UniProt P42226).
T1 construct: host or cells: H292
T1 sequence (P42226 1-847): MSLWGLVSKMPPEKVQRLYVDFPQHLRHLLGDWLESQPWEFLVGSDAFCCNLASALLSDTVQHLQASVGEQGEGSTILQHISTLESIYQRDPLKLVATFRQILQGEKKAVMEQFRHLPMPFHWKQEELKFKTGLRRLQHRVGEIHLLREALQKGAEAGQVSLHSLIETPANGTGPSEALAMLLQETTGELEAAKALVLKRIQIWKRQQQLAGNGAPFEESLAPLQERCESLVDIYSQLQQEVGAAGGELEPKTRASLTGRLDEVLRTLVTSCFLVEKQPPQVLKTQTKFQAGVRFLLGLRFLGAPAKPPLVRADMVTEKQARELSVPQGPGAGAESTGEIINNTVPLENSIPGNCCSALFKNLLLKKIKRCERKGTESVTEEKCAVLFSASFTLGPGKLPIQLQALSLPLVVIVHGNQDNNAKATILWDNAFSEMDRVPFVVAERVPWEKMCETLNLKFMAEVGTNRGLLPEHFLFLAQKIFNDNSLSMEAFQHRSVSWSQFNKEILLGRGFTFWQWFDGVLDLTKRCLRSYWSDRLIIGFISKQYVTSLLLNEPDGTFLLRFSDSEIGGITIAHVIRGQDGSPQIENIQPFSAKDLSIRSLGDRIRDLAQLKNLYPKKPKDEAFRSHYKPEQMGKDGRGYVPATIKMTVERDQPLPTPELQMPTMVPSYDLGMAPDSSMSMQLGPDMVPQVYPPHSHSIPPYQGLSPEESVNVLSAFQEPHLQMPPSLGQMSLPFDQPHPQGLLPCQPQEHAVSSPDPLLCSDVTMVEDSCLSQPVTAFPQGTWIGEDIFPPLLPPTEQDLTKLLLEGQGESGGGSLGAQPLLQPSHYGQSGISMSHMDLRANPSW
Kind of assay: STAT 6 tyrosine phosphorylation in IL-4-stimulated H292 cell (western blotting). Conditions: 1 μM compound, 10 ng/ml human IL-4, disappearance of the about 110 kDa band. It is filed as cell-based. The method, then: Measurement of STAT 6 Tyrosine Phosphorylation
The H292 cell (ATCC) (5×10^5 cells/0.5 ml) was inoculated into a 12 well plate (IWAKI) and cultured overnight, and then stimulation with 10 ng/ml of human IL-4 (Genzyme techne) was carried out. In the case of the evaluation of compounds, compound dilutions were added to the wells 20 minutes before the IL-4 stimulation. Also, regarding the dilution of compounds, dilution was carried out using 10% FBS-containing RPMI 1640 such that the final concentration of DMSO in which each compound was dissolved became 0.1% or less. This was washed three times with ice-cooled physiological phosphate buffer 20 minutes after the IL-4 stimulation. After the washing, 100 μl/well of a cell lysis solution (TNE buffer: 10 mM Tris-HCl pH 7.8, 1% NP-40, 0.15 M NaCl, 1 mM EDTA, 10 μg/ml aprotinin, 1 mM NaF and 1 mM Na3VO4) was added. The cell lysate was recovered, and 15 μl thereof was subjected to western blotting after SDS electrophoresis using an anti-tyrosine phosphorylated STAT 6 antibody (Cell Signaling). Whether or not the tyrosine phosphorylation band of about 110 kDa is disappeared, which is IL-4 stimulation-dependently detected, was judged. Also, uniform transference of the STAT 6 protein was confirmed using the same transfer membrane by western blotting which used an anti-STAT 6 antibody (SantaCruz).
A general note: Immunoblotting shows a protein as a band on a membrane.

Assay [2] concerns antigen-induced eosinophil infiltration. Nature of the assay: Mouse asthma model (OA-sensitized, antigen-induced eosinophil infiltration in alveolar lavage fluid). Conditions: hydrochloride, oral administration, 1 mg/kg, for 3 days, female Balb/c mice. The assay is classed as in vivo. The method, then: Evaluation Using Mouse Asthma Model
Active sensitization of female Balb/c mice were carried out by intraperitoneally administering ovalbumin (OA) and an adjuvant, aluminum hydroxide gel (alum), twice. Mice were exposed to OA by inhalation 12 days after the initial sensitization and sacrificed by bloodletting 72 hours after the exposure, and then alveolar lavage was carried out. A compound to be tested or a control, 0.5% methyl cellulose, was orally administered for 3 days from before the OA exposure to before the alveolar lavage. After the measurement of total white blood cell count in the alveolar lavage fluid, cell smear preparations were stained to calculate existing ratio of eosinophil based on its morphological characteristics. The total number of eosinophils was calculated from the total white blood cell count and existing ratio of respective kinds of cells.

For assay [3], the system named is neutrophil infiltration. Kind of assay: SO2 gas-induced intra-alveolar neutrophil infiltration model. The assay is classed as in vivo. Particulars: hydrochloride, oral administration, 10 mg/kg, for 2 days, male C57BL/6 mice, SO2 gas 600 ppm, alveolar lavage fluid. The method, then: Evaluation Using SO2 Gas-induced Intra-alveolar Neutrophil Infiltration Model Mouse Asthma Model
Male C57BL/6 mice were exposed to SO2 gas (600 ppm) for 3 hours and sacrificed by bloodletting 48 hours after the exposure, and then alveolar lavage was carried out. After the measurement of total white blood cell count in the alveolar lavage fluid, cell smear preparations were stained to calculate existing ratio of neutrophil based on its morphological characteristics. The number of neutrophils was calculated from the total white blood cell count and existing ratio of respective cells. A compound to be tested or a control, 0.5% methyl cellulose, was orally administered for 2 days from just before the exposure or just after the exposure to before the alveolar lavage.

Regarding `NC(=O)c1cnc(Nc2ccc(N3CCOCC3)cc2)nc1NCc1ccccc1` [Example 3, 4-benzylamino-2-{[4-(morpholin-4-yl)phenyl]amino}pyrimidine-5-carboxamide], the “inhibition of STAT 6 tyrosine phosphorylation” value in assay [1] is given as “completely inhibited”. In addition, in assay [2], the “inhibition of antigen-induced eosinophil infiltration” value is “about 60%”. Moreover, the “inhibition of neutrophil infiltration” value in assay [3] is recorded as “about 70%”. For the molecule `COc1ccccc1CNc1nc(Nc2ccc(N3CCOCC3)cc2)ncc1C(N)=O` [Example 35], the “inhibition of STAT 6 tyrosine phosphorylation” value in assay [1] is on record as “completely inhibited”.

`Cc1cccc(Nc2nc(NCCc3ccc(O)c(Cl)c3)ncc2C(N)=O)c1` [Production Example 99]: the “inhibition of STAT 6 tyrosine phosphorylation” value in assay [1] is “completely inhibited”.

The record behind these values is patent US8012959B2, “Diaminopyrimidinecarboxamide derivative” (Astellas Pharma Inc., priority 2002, dated 2011).
